Laboratory results: PMC12335474 (Communications Biology, 2025)

Columns and labels:
[1] = molecular target: MLCK (myosin light chain kinase, smooth muscle) (Homo sapiens, UniProt Q15746, N1725A); experiment: SPR; assay type: binding
[2] = molecular target: MLCK (myosin light chain kinase, smooth muscle) (Homo sapiens, UniProt Q15746); experiment: SPR; assay type: binding
Sequence of MLCK (myosin light chain kinase, smooth muscle) (Homo sapiens, UniProt Q15746) (Q15746 whole entry): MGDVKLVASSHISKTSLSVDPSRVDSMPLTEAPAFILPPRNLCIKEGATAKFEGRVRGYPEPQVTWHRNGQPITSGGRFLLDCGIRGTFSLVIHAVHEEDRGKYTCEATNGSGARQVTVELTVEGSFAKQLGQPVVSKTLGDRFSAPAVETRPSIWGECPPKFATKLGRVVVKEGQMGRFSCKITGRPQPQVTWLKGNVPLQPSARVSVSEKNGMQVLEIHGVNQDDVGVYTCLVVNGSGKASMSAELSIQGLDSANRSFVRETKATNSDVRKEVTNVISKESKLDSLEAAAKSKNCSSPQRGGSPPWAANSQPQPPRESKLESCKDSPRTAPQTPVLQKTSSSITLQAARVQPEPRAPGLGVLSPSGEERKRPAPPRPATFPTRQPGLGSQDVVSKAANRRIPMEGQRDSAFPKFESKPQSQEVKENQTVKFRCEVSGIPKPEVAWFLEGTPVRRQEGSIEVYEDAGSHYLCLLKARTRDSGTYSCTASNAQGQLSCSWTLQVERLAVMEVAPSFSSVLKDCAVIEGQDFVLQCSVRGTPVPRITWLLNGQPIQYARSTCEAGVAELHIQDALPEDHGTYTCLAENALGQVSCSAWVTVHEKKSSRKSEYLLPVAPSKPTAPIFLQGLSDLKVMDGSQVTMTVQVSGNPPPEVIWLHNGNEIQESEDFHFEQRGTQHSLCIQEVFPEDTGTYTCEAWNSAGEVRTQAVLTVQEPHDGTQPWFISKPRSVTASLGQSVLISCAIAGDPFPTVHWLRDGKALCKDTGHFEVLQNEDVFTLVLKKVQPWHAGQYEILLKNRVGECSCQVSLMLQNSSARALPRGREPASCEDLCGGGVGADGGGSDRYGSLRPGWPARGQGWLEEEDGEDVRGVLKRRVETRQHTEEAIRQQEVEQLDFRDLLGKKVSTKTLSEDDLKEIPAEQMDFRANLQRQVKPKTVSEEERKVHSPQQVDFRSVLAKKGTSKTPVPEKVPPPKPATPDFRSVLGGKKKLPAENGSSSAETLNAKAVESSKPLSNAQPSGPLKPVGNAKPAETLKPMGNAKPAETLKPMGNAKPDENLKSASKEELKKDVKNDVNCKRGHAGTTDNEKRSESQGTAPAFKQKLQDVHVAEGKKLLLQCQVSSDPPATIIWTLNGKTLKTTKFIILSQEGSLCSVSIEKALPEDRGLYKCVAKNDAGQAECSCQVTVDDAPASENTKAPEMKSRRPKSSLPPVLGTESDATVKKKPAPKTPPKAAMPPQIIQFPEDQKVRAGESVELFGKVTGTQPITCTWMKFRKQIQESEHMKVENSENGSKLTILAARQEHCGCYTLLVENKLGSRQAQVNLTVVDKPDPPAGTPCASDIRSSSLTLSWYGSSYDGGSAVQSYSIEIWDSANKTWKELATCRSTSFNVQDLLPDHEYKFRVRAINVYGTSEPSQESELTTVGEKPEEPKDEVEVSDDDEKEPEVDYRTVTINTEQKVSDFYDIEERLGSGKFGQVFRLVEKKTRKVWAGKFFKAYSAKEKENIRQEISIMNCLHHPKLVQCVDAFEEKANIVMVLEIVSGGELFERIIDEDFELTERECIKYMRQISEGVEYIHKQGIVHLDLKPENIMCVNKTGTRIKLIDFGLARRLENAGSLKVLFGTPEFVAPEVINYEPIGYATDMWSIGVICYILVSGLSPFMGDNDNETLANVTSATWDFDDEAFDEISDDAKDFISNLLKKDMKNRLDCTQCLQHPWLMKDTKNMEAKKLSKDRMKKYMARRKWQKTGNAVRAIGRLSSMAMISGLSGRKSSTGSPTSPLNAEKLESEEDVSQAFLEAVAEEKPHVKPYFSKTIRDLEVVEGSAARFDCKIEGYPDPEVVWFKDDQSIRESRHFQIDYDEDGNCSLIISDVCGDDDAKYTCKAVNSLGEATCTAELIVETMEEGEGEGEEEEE

Sequence of MLCK (myosin light chain kinase, smooth muscle) (Homo sapiens, UniProt Q15746, N1725A) (Q15746 923-1914 N1725A): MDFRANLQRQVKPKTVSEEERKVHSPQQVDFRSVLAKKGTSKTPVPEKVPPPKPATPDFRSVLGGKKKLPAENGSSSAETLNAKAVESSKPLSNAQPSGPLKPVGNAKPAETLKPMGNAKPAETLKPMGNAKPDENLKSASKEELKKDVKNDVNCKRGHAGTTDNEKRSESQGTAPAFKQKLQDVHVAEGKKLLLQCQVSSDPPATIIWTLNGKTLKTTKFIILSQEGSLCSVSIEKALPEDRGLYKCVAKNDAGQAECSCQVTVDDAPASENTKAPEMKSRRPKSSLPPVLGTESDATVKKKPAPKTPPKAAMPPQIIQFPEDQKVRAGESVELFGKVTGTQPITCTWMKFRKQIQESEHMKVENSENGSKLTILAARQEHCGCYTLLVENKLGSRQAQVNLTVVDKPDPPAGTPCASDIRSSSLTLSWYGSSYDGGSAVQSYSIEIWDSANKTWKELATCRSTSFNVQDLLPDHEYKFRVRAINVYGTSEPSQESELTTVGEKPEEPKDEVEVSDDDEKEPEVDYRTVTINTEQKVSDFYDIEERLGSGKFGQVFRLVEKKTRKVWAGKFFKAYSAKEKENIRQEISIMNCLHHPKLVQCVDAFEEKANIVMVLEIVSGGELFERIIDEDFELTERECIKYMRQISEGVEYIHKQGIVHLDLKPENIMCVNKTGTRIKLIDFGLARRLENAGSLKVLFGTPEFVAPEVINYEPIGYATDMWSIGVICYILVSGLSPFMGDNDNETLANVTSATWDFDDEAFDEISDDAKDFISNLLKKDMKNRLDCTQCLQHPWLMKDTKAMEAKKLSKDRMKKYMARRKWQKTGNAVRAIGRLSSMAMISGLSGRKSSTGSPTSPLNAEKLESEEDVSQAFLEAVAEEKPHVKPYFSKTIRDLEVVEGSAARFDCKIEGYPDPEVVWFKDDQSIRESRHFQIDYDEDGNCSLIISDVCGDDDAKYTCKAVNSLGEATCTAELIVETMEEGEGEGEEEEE

Kd [1]: 312 µM
Kd [2]: 257 µM
SMILES: O=c1[nH]c(=O)c2[nH]c(=O)[nH]c2[nH]1 [UA, uric acid]
